Measured values taken from publication PMC4047407 (The Journal of Biological Chemistry, 2014).
Where a SMILES comes first, the peptide text is derived from it. Bridges are numbered along the chain shown (N, C = ends).

Experiments:
M. sexta V-ATPase = molecular target: T1, M. sexta V-ATPase (Manduca sexta, UniProt P31403); assay: V-ATPase assay, detection of released phosphate, purified V1Vo holoenzyme; assay type: biochemical; settings: Fig. 5, read-out: apparent Ki, inhibition of M. sexta V-ATPase
T1 construct: The M. sexta V1Vo holoenzyme was extracted and purified as described previously; from tissue
T1 sequence (P31403 whole entry): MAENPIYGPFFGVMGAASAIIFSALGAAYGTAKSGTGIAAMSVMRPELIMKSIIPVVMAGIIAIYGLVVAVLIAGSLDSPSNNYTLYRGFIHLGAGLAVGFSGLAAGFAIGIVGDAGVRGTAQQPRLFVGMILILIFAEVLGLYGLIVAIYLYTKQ
Description: (§1) S. oryzae strains WAA42 and ISOR3 were reared according to Louis et al. ([25]). […] PA1b labeling using ^125I and binding assays using the ^125I toxin were performed according to Ref. [22], and binding data were analyzed using the SIMFIT software. Fifth instar larvae of M. sexta (Lepidoptera, Sphingidae), weighing 6–8 g, were reared under long day conditions (16 h of light) at 27 °C using the gypsy moth diet (MP Biomedicals).
(§2) V-ATPase assays based on the detection of released phosphate using the M. sexta V-ATPase or yeast vacuolar membranes were carried out as reported previously ([23], [28], [29]).
(§3) FIGURE 5. Inhibition of yeast V-ATPase activity. […] For comparison, inhibition of the purified V1Vo holoenzyme of M. sexta (squares) by PA1b is included.

[1] = tested on: crude membrane extract of S. oryzae (PA1b binding site); design: species or system Sitophilus oryzae; settings: WAA42 membrane extracts; bafilomycin up to 10 μM; data not shown
[2] = molecular target: V-ATPase from wild type S. cerevisiae strain BMA64-1B (Saccharomyces cerevisiae, UniProt P23968+P25515+P32842); assay: V-ATPase assay on yeast vacuolar membranes, wild type strain; assay type: biochemical; settings: Fig. 5, read-out: Ki, inhibition of V-ATPase activity
Description: as §2, §3

S. oryzae strain WAA42 = assay: Weevil toxicity bioassay, inhibitor in the food, PA1b-sensitive strain; assay type: in vivo, Sitophilus oryzae; settings: 30 weevils, artificial diet over 14 days
Description: as §1
(§4) FIGURE 6. […] 30 rice weevils (S. oryzae) were fed on artificial diet incorporating each tested compound over 14 days. The weevil strains were WAA42 (PA1b-sensitive strain: open symbols) and ISOR3 (PA1b-resistant strain: filled symbols). […] Open diamonds/dashed line, control for artificial diet with bafilomycin solvent.

S. oryzae strain ISOR3 = assay: Weevil toxicity bioassay, inhibitor in the food, PA1b-resistant strain; assay type: in vivo, Sitophilus oryzae; settings: 30 weevils; for Mortality: 14 days
Description: as §1, §4

Work on `CC[C@H](C)[C@@H]1NC(=O)[C@H](C(C)C)NC(=O)[C@H](CC(C)C)NC(=O)CNC(=O)[C@H](C(C)C)NC(=O)[C@@H]2CCCN2C(=O)[C@H]([C@@H](C)CC)NC(=O)[C@@H]2CSSC[C@@H]3NC(=O)[C@H](C(C)C)NC(=O)CNC(=O)[C@H](CC(N)=O)NC(=O)[C@@H](NC(=O)[C@H](CO)NC(=O)[C@H](C)N)CSSC[C@H](NC(=O)[C@H](C)NC(=O)[C@H](CO)NC(=O)[C@H]([C@@H](C)O)NC(=O)CNC(=O)[C@H](CSSC[C@@H](C(=O)N[C@@H](CCCNC(=N)N)C(=O)N[C@@H](CC(N)=O)C(=O)N4CCC[C@H]4C(=O)N[C@@H](CO)C(=O)NCC(=O)O)NC(=O)[C@H](Cc4ccc(O)cc4)NC(=O)CNC1=O)NC(=O)[C@@H]1CCCN1C(=O)[C@@H]1CCCN1C(=O)[C@H](CCSC)NC(=O)[C@H](CCC(=O)O)NC(=O)[C@H](Cc1ccccc1)NC(=O)[C@@H]1CCCN1C(=O)[C@H](CO)NC3=O)C(=O)N[C@@H](CCCNC(=N)N)C(=O)N2` [PA1b, pea albumin 1 subunit b] (H-ASCNGVCSPFEMPPCGTSACRCIPVGLVIGYCRNPSG-OH; disulfide 3-20, 7-22, 15-32) yielded a Ki (M. sexta V-ATPase) of ~91 nM.

For `CO/C1=C\C(C)=C\[C@@H](C)[C@@H](O)[C@@H](C)C/C(C)=C/C=C/[C@H](OC)[C@@H]([C@@H](C)[C@@H](O)[C@H](C)[C@@]2(O)C[C@@H](O)[C@H](C)[C@@H](C(C)C)O2)OC1=O` [bafilomycin, bafilomycin A1], the “Inhibition of binding of radiolabeled PA1b by bafilomycin” value [1] was “unable to inhibit”, the Ki [2] was ~2.4 nM and the TL50 (S. oryzae strain WAA42; bafilomycin 0.36 mg/g of food) was 12.6 ± 2.3 days. The TL50 (S. oryzae strain WAA42; bafilomycin 0.60 mg/g of food) was 9.4 ± 1 days, the TL50 (S. oryzae strain WAA42; bafilomycin 2.0 mg/g food) was 4.0 ± 0.2 days and the Mortality (S. oryzae strain ISOR3; bafilomycin 0.36 mg/g of food) was “no mortality”. For the same compound, the Mortality (S. oryzae strain ISOR3; bafilomycin 0.60 mg/g of food) was “no mortality” and the TL50 (S. oryzae strain ISOR3; bafilomycin 2.0 mg/g food, artificial diet over 14 days) was 9.9 ± 0.5 days.
